Where “and” joins values, the source holds several entries; their conditions need not be identical. Equal values may be shown once.
Biological target: T1, 5HT6 human recombinant receptor (Homo sapiens, UniProt P50406)
T1 construct: purchased Receptor Biology; host or cells: HEK-293 cell membranes
Assay: Binding with serotonin receptor 5HT6 ([3H]-LSD radioligand, HEK-293 cell membranes)
Settings: [3H]-LSD 2.7 nM, HEK-293 membranes; for inhibition at 0.01 µM: 10 nM compound; for inhibition at 0.01 µM / inhibition at 0.1 µM: 60 min, 37° C.; for inhibition at 0.1 µM: 100 nM compound; for Ki: non-linear regression EBDA/LIGAND
Procedure: Biological Assays Binding with Serotonin Receptor 5HT6
Cell membranes of HEK-293 cells expressing the 5HT6 human recombinant receptor were supplied by Receptor Biology. In said membranes the receptor concentration is 2.18 pmol/mg protein and the protein concentration is 9.17 mg/ml. The experimental protocol follows the method of B. L. Roth et al. [B. L. Roth, S. C. Craigo, M. S. Choudhary, A. Uluer, F. J. Monsma, Y. Shen, H. Y. Meltzer, D. R. Sibley: Binding of Typical and Atypical Antipsychotic Agents to 5-Hydroxytryptamine-6 and Hydroxytriptamine-7 Receptors. The Journal of Pharmacology and Experimental Therapeutics, 1994, 268, 1403] with slight changes. The commercial membrane is diluted (1:40 dilution) with the binding buffer: 50 mM Tris-HCl, 10 mM MgCl2, 0.5 mM EDTA (pH 7.4). The radioligand used is [^3H]-LSD at a concentration of 2.7 nM with a final volume of 200 μl. incubation is initiated by adding 100 μl of membrane suspension, (≈22.9 μg membrane protein), and is prolonged for 60 minutes at a temperature of 37° C. The incubation is ended by fast filtration in a Brandel Cell Harvester through fiber glass filters made by Schleicher & Schuell GF 3362 pretreated with a solution of polyethylenimine at 0.5%. The filters are washed three times with three milliliters of buffer Tris-HCl 50 mM pH 7.4. The filters are transferred to flasks and 5 ml of Ecoscint H liquid scintillation cocktail are added to each flask. The flasks are allowed to reach equilibrium for several hours before counting with a Wallac Winspectral 1414 scintillation counter. Non-specific binding is determined in the presence of 100 μM of serotonin. Tests were made in triplicate. The inhibition constants (Ki, nM) were calculated by non-linear regression analysis using the program EBDA/LIGAND [Munson and Rodbard, Analytical Biochemistry, 1980, 107, 220].

T1 sequence (P50406 whole entry): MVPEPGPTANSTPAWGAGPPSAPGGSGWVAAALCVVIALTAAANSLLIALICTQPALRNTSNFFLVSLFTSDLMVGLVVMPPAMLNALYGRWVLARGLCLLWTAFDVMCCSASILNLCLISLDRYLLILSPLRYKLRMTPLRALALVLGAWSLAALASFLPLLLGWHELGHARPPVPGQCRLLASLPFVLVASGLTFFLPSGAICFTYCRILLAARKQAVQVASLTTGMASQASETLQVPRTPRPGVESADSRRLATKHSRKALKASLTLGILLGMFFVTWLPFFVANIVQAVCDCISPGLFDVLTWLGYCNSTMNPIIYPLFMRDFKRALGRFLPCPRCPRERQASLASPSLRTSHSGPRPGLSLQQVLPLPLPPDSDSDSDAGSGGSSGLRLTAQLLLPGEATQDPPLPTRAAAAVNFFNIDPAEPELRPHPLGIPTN

| Structure (SMILES) | inhibition at 0.01 µM | inhibition at 0.1 µM | Ki |
| --- | --- | --- | --- |
| Cc1c(S(=O)(=O)Nc2ccc3[nH]cc(CCN)c3c2)sc2ccc(Cl)cc12 [Example 5, 5-Chloro-3-methyl-benzo[b]thiophene-2-sulfonic acid [3-(2-amino-ethyl)-1H-indol-5-yl]-amide] | 63.5% | 85% | 11.7 nM |
| NCCc1c[nH]c2ccc(NS(=O)(=O)c3c(Cl)nc4sccn34)cc12 [Example 6, 6-Chloro-imidazo[2,1-b]thiazole-5-sulfonic acid [3-(2-amino-ethyl)-1H-indol-5-yl]-amide] | 75.7% | 92.3% | 3.6 ± 1.4 nM |
| CCNCCc1c[nH]c2ccc(NS(=O)(=O)c3sc4ccc(Cl)cc4c3C)cc12 [Example 1, 5-Chloro-3-methyl-benzo[b]thiophene-2-sulfonic acid [3-(2-ethylamino-ethyl)-1H-indol-5-yl]-amide] | 82.7% | 91.4% | 0.67 nM |
| CCNCCc1c[nH]c2ccc(NS(=O)(=O)c3c(Cl)nc4sccn34)cc12 [Example 4, 6-Chloro-imidazo[2,1-b]thiazole-5-sulfonic acid [3-(2-ethylamino-ethyl)-1H-indol-5-yl]-amide] | 61.8% | 81.7% | 6.4 ± 1 nM |
| CNCCc1c[nH]c2ccc(NS(=O)(=O)c3sc4ccc(Cl)cc4c3C)cc12 [Example 2, 5-Chloro-3-methyl-benzo[b]thiophene-2-sulfonic acid [3-(2-methylamino-ethyl)-1H-indol-5-yl]-amide] | 62.5% | 80.3% | 2 nM |
| CNCCc1c[nH]c2ccc(NS(=O)(=O)c3c(Cl)nc4sccn34)cc12 [Example 3, 6-Chloro-imidazo[2,1-b]thiazole-5-sulfonic acid [3-(2-methylamino-ethyl)-1H-indol-5-yl]-amide] | 47.3% | 71.8% | 4.7 nM and 3.2 nM |
